In ChEMBL document CHEMBL1155077, “Kinesin spindle protein (KSP) inhibitors. 9. Discovery of (2S)-4-(2,5-difluorophenyl)-n-[(3R,4S)-3-fluoro-1-methylpiperidin-4-yl]-2-(hydroxymethyl)-N-methyl-2-phenyl-2,5-dihydro-1H-pyrrole-1-carboxamide (MK-0731) for the treatment of taxane-refractory cancer” (J Med Chem, 2008):

Legend:
[1] = Half life in rhesus monkey at 0.4 mg/kg, iv; type: ADME, organism-based, Macaca mulatta; set-up: dose 0.4 mg/kg, route intravenous; details: in vivo
[2] = test system: A2780; assay: Induction of mitotic arrest in human A2780 cells […] clr:NU/NU-nuBR mouse assessed as minimum plasma concentration required to induce maximum mitotic arrest after 22 hrs; type: functional
[3] = target: Kinesin-like protein KIF1B (Homo sapiens, UniProt O60333); assay: Inhibition of cloned human Kif1B
[4] = target: Voltage-gated inwardly rectifying potassium channel KCNH2 (Homo sapiens, UniProt Q12809)
Description: Displacement of [35S]MK499 from human ERG expressed in HEL cells

[5] = Clearance in rat at 1 mg/kg, iv; type: ADME, organism-based; set-up: dose 1 mg/kg, route intravenous; details: in vivo
[6] = target: T1, Kinesin-like protein KIF2C (Homo sapiens, UniProt Q99661); assay: Inhibition of cloned human MCAK
T1 sequence (Q99661 whole entry): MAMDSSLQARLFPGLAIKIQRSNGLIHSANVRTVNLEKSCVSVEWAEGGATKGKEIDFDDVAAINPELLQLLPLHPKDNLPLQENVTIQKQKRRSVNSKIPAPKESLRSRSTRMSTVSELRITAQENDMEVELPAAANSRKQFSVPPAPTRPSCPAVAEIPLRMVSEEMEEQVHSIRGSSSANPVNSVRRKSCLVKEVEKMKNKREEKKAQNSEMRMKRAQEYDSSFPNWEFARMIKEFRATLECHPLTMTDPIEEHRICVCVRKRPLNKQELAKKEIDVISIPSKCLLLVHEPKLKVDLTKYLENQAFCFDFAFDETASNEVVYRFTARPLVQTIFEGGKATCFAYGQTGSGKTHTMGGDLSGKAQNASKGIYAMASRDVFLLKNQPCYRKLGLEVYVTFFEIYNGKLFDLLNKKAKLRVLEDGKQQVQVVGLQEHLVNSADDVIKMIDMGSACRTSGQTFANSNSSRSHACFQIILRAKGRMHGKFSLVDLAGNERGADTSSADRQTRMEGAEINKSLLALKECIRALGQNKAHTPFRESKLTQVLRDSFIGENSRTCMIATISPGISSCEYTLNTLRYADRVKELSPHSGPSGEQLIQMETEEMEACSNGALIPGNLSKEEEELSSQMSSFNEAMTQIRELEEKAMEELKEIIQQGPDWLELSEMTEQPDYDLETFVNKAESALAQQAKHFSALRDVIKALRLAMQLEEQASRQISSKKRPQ

[7] = target: Kinesin-like protein KIF3A (Homo sapiens, UniProt Q9Y496); assay: Inhibition of cloned human Kif3A
Sequence of Kinesin-like protein KIF3A (Q9Y496 whole entry): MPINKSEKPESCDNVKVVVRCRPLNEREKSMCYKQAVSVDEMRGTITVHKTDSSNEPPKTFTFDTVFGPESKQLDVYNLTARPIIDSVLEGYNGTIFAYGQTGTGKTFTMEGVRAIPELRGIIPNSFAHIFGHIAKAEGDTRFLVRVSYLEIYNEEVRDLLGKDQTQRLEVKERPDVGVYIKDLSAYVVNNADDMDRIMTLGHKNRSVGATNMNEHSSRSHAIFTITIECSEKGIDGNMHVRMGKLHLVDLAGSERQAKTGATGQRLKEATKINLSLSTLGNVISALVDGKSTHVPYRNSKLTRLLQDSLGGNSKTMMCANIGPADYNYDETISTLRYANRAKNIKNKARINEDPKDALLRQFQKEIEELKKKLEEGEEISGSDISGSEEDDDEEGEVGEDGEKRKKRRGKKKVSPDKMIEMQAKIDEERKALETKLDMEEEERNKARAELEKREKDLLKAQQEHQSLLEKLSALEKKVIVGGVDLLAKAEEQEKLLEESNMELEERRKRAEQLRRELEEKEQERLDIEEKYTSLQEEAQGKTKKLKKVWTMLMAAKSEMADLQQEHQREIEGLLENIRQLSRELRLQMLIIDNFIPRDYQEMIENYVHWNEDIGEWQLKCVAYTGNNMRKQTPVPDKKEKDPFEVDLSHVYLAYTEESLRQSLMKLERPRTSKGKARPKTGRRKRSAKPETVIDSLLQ

Sequence of Voltage-gated inwardly rectifying potassium channel KCNH2 (Q12809 whole entry): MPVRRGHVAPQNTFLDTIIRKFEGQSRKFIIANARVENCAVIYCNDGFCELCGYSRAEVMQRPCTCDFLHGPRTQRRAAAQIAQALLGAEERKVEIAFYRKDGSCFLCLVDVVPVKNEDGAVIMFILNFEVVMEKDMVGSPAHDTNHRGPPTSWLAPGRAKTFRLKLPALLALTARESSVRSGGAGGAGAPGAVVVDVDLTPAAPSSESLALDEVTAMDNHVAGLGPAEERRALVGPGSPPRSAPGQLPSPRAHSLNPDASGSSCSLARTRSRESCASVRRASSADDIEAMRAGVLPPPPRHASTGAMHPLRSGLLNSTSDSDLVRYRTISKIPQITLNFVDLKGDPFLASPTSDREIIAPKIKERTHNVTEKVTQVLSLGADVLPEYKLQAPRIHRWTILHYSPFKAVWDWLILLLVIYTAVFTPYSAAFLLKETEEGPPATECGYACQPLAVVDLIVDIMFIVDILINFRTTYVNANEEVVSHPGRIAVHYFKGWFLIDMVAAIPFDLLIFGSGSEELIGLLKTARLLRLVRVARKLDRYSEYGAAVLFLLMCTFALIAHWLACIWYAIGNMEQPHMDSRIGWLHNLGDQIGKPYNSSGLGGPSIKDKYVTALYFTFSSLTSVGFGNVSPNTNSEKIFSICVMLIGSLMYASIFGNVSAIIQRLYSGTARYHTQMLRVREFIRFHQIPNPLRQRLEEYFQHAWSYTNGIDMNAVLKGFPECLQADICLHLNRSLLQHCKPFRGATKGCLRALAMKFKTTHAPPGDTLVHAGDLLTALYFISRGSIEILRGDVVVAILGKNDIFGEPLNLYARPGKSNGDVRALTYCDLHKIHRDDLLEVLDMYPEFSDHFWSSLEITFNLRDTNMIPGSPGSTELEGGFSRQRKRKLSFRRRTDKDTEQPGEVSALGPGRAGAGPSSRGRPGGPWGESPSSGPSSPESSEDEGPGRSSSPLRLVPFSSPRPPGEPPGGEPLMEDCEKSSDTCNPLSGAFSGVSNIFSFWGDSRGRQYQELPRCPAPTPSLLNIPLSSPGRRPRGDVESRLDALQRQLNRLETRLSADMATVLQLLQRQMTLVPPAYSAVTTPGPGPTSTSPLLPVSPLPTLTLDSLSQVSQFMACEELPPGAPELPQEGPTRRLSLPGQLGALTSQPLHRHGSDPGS
Sequence of Kinesin-like protein KIF1B (O60333 whole entry): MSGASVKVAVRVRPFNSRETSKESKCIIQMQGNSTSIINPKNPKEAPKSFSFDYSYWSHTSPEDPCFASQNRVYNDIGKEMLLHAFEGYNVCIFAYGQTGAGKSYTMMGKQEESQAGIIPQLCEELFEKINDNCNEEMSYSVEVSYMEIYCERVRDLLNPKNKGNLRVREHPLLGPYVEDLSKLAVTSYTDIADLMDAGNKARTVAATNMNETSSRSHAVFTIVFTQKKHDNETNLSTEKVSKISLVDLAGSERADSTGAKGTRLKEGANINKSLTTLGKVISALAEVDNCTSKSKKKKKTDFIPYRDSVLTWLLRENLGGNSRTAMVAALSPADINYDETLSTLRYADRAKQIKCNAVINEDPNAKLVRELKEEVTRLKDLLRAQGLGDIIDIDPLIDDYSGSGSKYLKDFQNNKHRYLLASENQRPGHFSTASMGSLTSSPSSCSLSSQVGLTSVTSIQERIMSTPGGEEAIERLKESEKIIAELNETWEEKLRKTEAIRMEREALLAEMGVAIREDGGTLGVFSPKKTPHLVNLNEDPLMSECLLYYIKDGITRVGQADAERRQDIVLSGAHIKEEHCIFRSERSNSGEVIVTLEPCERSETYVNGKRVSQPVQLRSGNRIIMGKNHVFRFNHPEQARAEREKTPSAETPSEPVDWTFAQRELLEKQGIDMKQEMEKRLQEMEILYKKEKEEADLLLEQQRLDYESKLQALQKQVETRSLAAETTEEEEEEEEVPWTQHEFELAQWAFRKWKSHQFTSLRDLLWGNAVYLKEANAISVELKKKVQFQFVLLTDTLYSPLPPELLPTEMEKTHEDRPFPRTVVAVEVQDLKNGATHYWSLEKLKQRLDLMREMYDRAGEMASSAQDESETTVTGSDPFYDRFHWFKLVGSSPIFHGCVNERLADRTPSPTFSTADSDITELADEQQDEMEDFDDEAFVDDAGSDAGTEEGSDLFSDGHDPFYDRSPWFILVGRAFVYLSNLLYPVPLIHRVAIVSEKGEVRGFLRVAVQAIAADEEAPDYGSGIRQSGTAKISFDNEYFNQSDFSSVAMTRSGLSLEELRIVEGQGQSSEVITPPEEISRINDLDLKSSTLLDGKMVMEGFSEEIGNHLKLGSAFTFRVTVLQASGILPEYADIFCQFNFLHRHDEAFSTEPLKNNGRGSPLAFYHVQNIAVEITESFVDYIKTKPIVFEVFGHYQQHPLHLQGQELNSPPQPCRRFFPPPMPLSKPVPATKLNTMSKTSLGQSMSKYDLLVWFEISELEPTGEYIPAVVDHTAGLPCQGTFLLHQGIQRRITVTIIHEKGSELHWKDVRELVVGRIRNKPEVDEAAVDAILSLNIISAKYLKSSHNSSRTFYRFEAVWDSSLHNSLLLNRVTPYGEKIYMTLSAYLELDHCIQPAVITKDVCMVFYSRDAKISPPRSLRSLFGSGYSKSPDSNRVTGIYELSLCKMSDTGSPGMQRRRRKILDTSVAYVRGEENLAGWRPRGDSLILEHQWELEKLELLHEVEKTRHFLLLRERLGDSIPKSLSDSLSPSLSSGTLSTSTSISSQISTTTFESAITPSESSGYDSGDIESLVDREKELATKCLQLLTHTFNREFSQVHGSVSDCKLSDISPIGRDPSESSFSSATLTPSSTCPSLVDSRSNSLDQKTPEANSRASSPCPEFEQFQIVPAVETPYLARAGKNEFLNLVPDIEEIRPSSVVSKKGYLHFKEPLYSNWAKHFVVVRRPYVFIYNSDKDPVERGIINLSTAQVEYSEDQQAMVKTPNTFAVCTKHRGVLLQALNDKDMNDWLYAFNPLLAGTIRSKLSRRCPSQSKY

## CN1CC[C@H](N(C)C(=O)N2CC(c3cc(F)ccc3F)=C[C@@]2(CO)c2ccccc2)[C@H](F)C1
[1]
  half-life: 1 h
[2]
  EC90: 0.094 µM
[3]
  IC50: > 50 µM
[4]
  IC50: 20.5 µM
[5]
  clearance: 66.7 mL/min/kg
[6]
  IC50: > 50 µM
[7]
  IC50: > 50 µM
